Measured values reported in patent US9233964B2, “Sulfamide piperazine derivatives as protein tyrosine kinase inhibitors and pharmaceutical use therof” (LEO PHARMA A/S, priority 2011, dated 2016).
pEC50: −log10 of the molar value.

Key:
Assay type in all cases: biochemical
[1] = molecular target: T1, TYK2 (Homo sapiens, UniProt P29597); assay: JAK kinase assay (HTRF, phosphorylation of synthetic peptide), TYK2; settings: catalytic domain, ATP at Km (13 μM); read-out: TYK2 kinase inhibitory activity (EC50)
T1 construct: JAK1 (aa 850-1154) and TYK2 (aa 871-1187) are expressed with an N-terminally fused GST-tag; GST (N); purchased Carna Biosciences, Inc; host or cells: baculovirus expression system
T1 sequence (P29597 871-1187): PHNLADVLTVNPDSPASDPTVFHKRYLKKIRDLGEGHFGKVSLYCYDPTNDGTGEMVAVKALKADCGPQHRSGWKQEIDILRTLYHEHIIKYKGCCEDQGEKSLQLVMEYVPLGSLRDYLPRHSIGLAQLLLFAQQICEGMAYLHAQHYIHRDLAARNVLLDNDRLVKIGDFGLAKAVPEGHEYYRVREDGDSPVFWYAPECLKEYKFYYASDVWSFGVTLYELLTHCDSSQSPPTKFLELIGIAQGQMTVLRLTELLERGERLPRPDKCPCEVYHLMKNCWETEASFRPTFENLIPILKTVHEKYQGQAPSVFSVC
Experimental: (§1) Human baculovirus-expressed JAK1, 2, 3 and TYK2 were purchased from Carna Biosciences, Inc. All four purified enzymes contain only the catalytic domain. JAK1 (aa 850-1154) and TYK2 (aa 871-1187) are expressed with an N-terminally fused GST-tag, and JAK2 and JAK3 with an N-terminally fused His-tag.
(§2) Inhibition of phosphorylation of a synthetic peptide was measured in an HTRF-based assay using the TK substrate-Biotin from the Cisbio HTRFKinEASE TK kit. First, 2 μl of TK solution (TK substrate-biotin in kinase buffer [1× enzymatic buffer from HTRFKinEASE TK kit, 1 mM DTT]) is added to a plate containing 1 μl prediluted compound (final assay concentration DMSO: 0.75%). Then, 5 μl kinase-ATP mix (prepared in kinase buffer) is added to the wells and the plates are incubated at RT for 20-30 min. For all four kinases a concentration of ATP that corresponded to the Km for ATP was used. The final concentrations of buffers, substrate, kinase and ATP were: JAK1: 50 mM Hepes buffer pH 7.0, 0.01% BSA, 10 mM MgCl2, 1 mM DTT, 7 μM ATP, 50 nM SEB, 1 μM TK Substrate-Biotin and 5 ng JAK1; JAK2: 50 mM Hepes buffer pH 7.0, 0.01% BSA, 5 mM MgCl2, 1 mM DTT, 4 μM ATP, 1 μM TK Substrate-Biotin and 0.1 ng JAK2; JAK3: 50 mM Hepes buffer pH 7.0, 0.01% BSA, 5 mM MgCl2, 1 mM DTT, 2 μM ATP, 1 μM TK Substrate-Biotin and 0.3 ng JAK3; TYK2: 50 mM Hepes buffer pH 7.0, 0.01% BSA, 5 mM MgCl2, 1 mM DTT, 13 μM ATP, 50 nM SEB, 1 μM TK Substrate-Biotin and 0.8 ng TYK2. Thereafter, the kinase reaction is stopped by adding 4 μl detection mix (final concentrations: 50 mM Hepes buffer pH 7.0, 0.01% BSA, 0.8 M KF, 20 mM EDTA, 42 nM Streptavidin-XL665 and 1:400 STK Ab Cryptate) and the plates are incubated overnight in the dark. The HTRF signal is read using an Envision plate reader.

[2] = molecular target: T2, JAK1 (Homo sapiens, UniProt P23458); assay: JAK kinase assay (HTRF, phosphorylation of synthetic peptide), JAK1; settings: catalytic domain, ATP at Km (7 μM); read-out: JAK1 kinase inhibitory activity (EC50)
T2 construct: JAK1 (aa 850-1154) and TYK2 (aa 871-1187) are expressed with an N-terminally fused GST-tag; GST (N); purchased Carna Biosciences, Inc; host or cells: baculovirus expression system
Experimental: as §1, §2

[3] = molecular target: T3, JAK3 (Homo sapiens, UniProt P52333); assay: JAK kinase assay (HTRF, phosphorylation of synthetic peptide), JAK3; settings: catalytic domain, ATP at Km (2 μM); read-out: JAK3 kinase inhibitory activity (EC50)
T3 construct: All four purified enzymes contain only the catalytic domain; His (N); purchased Carna Biosciences, Inc; host or cells: baculovirus expression system
Experimental: as §1, §2

[4] = molecular target: T4, JAK2 (Homo sapiens, UniProt O60674); assay: JAK kinase assay (HTRF, phosphorylation of synthetic peptide), JAK2; settings: catalytic domain, ATP at Km (4 μM); read-out: JAK2 kinase inhibitory activity (EC50)
T4 construct: All four purified enzymes contain only the catalytic domain; His (N); purchased Carna Biosciences, Inc; host or cells: baculovirus expression system
Experimental: as §1, §2

T3 sequence (P52333 822-1111 limits assumed): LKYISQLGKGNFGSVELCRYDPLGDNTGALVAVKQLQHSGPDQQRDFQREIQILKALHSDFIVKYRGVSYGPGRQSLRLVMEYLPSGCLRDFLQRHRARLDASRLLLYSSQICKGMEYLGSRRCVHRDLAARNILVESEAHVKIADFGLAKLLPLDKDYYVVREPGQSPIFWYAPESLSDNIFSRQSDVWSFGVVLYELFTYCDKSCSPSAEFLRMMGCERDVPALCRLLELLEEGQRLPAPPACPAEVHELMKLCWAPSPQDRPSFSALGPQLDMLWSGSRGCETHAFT
T4 sequence (O60674 849-1124 limits assumed): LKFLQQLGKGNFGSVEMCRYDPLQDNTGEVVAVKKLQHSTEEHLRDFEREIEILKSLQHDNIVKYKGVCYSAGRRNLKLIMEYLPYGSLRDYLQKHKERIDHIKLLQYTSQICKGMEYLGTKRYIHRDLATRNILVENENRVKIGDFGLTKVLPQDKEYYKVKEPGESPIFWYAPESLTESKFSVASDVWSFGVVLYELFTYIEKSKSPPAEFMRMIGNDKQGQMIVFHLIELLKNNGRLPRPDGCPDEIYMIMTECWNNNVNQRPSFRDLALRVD
T2 sequence (P23458 850-1154): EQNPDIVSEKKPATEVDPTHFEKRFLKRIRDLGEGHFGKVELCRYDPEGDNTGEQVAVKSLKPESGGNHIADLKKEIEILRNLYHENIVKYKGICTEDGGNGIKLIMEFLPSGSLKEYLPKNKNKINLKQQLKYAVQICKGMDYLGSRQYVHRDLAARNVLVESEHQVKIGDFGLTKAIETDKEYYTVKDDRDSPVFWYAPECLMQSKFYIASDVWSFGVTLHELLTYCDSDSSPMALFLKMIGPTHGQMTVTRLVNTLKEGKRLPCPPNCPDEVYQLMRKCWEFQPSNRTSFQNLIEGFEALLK

SMILES | pEC50 [1] | pEC50 [2] | pEC50 [3] | pEC50 [4]
CN(CCc1cccc(F)c1)S(=O)(=O)N1CCN(c2ncnc3[nH]ccc23)CC12CC2 [Example 17, 7-(7H-Pyrrolo[2,3-d]pyrimidin-4-yl)-4,7-diaza-spiro[2.5]octane-4-sulfonic acid [2-(3-fluoro-phenyl)-ethyl]-methyl-amide] | > 7.00 | > 7.00 | > 7.00 | > 7.00
O=S(=O)(N(CCc1ccccc1)CCc1ccccc1)N1CCN(c2ncnc3[nH]ccc23)CC12CC2 [Example 18, 7-(7H-Pyrrolo[2,3-d]pyrimidin-4-yl)-4,7-diaza-spiro[2.5]octane-4-sulfonic acid diphenethylamide] | < 6.30 | 6.30 to 7.00 | < 6.30 | 6.30 to 7.00
N#CCN(CCc1ccccc1)S(=O)(=O)N1CCN(c2ncnc3[nH]ccc23)CC12CC2 [Example 19, 7-(7H-Pyrrolo[2,3-d]pyrimidin-4-yl)-4,7-diaza-spiro[2.5]octane-4-sulfonic acid cyanomethyl-phenethyl-amide] | > 7.00 | > 7.00 | > 7.00 | > 7.00
O=S(=O)(N(CCc1ccccc1)CC1CCCCO1)N1CCN(c2ncnc3[nH]ccc23)CC12CC2 (centres unmarked) [Example 21, 7-(7H-Pyrrolo[2,3-d]pyrimidin-4-yl)-4,7-diaza-spiro[2.5]octane-4-sulfonic acid phenethyl-(tetrahydro-pyran-2-ylmethyl)-amide] | < 6.30 | > 7.00 | 6.30 to 7.00 | > 7.00
COCCN(CCc1ccccc1)S(=O)(=O)N1CCN(c2ncnc3[nH]ccc23)CC12CC2 [Example 22, 7-(7H-Pyrrolo[2,3-d]pyrimidin-4-yl)-4,7-diaza-spiro[2.5]octane-4-sulfonic acid (2-methoxy-ethyl)-phenethyl-amide] | 6.30 to 7.00 | > 7.00 | > 7.00 | > 7.00
CC#CCN(CCc1ccccc1)S(=O)(=O)N1CCN(c2ncnc3[nH]ccc23)CC12CC2 [Example 23, 7-(7H-Pyrrolo[2,3-d]pyrimidin-4-yl)-4,7-diaza-spiro[2.5]octane-4-sulfonic acid but-2-ynyl-phenethyl-amide] | < 6.30 | > 7.00 | 6.30 to 7.00 | > 7.00
O=S(=O)(N(CCc1ccccc1)CCn1cccn1)N1CCN(c2ncnc3[nH]ccc23)CC12CC2 [Example 24, 7-(7H-Pyrrolo[2,3-d]pyrimidin-4-yl)-4,7-diaza-spiro[2.5]octane-4-sulfonic acid phenethyl-(2-pyrazol-1-yl-ethyl)-amide] | 6.30 to 7.00 | > 7.00 | > 7.00 | > 7.00
O=S(=O)(N(CCO)CCc1ccccc1)N1CCN(c2ncnc3[nH]ccc23)CC12CC2 [Example 25, 7-(7H-Pyrrolo[2,3-d]pyrimidin-4-yl)-4,7-diaza-spiro[2.5]octane-4-sulfonic acid (2-hydroxy-ethyl)-phenethyl-amide] | > 7.00 | > 7.00 | > 7.00 | > 7.00
CN(CCn1cccc1)S(=O)(=O)N1CCN(c2ncnc3[nH]ccc23)CC12CC2 [Example 26, 7-(7H-Pyrrolo[2,3-d]pyrimidin-4-yl)-4,7-diaza-spiro[2.5]octane-4-sulfonic acid methyl-(2-pyrrol-1-yl-ethyl)-amide] | > 7.00 | > 7.00 | > 7.00 | > 7.00
CC(C)CCN(C)S(=O)(=O)N1CCN(c2ncnc3[nH]ccc23)CC12CC2 [Example 27, 7-(7H-Pyrrolo[2,3-d]pyrimidin-4-yl)-4,7-diaza-spiro[2.5]octane-4-sulfonic acid methyl-(3-methyl-butyl)-amide] | 6.30 to 7.00 | > 7.00 | > 7.00 | > 7.00
CN(Cc1ccccn1)S(=O)(=O)N1CCN(c2ncnc3[nH]ccc23)CC12CC2 [Example 28, 7-(7H-Pyrrolo[2,3-d]pyrimidin-4-yl)-4,7-diaza-spiro[2.5]octane-4-sulfonic acid methyl-pyridin-2-ylmethyl-amide] | 6.30 to 7.00 | > 7.00 | 6.30 to 7.00 | > 7.00
CN(CCCc1ccc(C#N)cc1)S(=O)(=O)N1CCN(c2ncnc3[nH]ccc23)CC12CC2 [Example 29, 7-(7H-Pyrrolo[2,3-d]pyrimidin-4-yl)-4,7-diaza-spiro[2.5]octane-4-sulfonic acid [3-(4-cyano-phenyl)-propyl]-methyl-amide] | < 6.30 | > 7.00 | 6.30 to 7.00 | > 7.00
CN(CCCc1cccc(C#N)c1)S(=O)(=O)N1CCN(c2ncnc3[nH]ccc23)CC12CC2 [Example 30, 7-(7H-Pyrrolo[2,3-d]pyrimidin-4-yl)-4,7-diaza-spiro[2.5]octane-4-sulfonic acid [3-(3-cyano-phenyl)-propyl]-methyl-amide] | < 6.30 | > 7.00 | 6.30 to 7.00 | > 7.00
CN(CCOc1ccccc1)S(=O)(=O)N1CCN(c2ncnc3[nH]ccc23)CC12CC2 [Example 31, 7-(7H-Pyrrolo[2,3-d]pyrimidin-4-yl)-4,7-diaza-spiro[2.5]octane-4-sulfonic acid methyl-(2-phenoxy-ethyl)-amide] | 6.30 to 7.00 | > 7.00 | 6.30 to 7.00 | > 7.00
Cc1noc(C)c1CCN(C)S(=O)(=O)N1CCN(c2ncnc3[nH]ccc23)CC12CC2 [Example 32, 7-(7H-Pyrrolo[2,3-d]pyrimidin-4-yl)-4,7-diaza-spiro[2.5]octane-4-sulfonic acid [2-(3,5-dimethyl-isoxazol-4-yl)-ethyl]-methyl-amide] | 6.30 to 7.00 | > 7.00 | > 7.00 | > 7.00
COC(=O)CN(C)S(=O)(=O)N1CCN(c2ncnc3[nH]ccc23)CC12CC2 [Example 34, {Methyl-[7-(7H-pyrrolo[2,3-d]pyrimidin-4-yl)-4,7-diaza-spiro[2.5]octane-4-sulfonyl]-amino}-acetic acid methyl ester] | 6.30 to 7.00 | > 7.00 | > 7.00 | > 7.00
CN(CCCC#N)S(=O)(=O)N1CCN(c2ncnc3[nH]ccc23)CC12CC2 [Example 35, 7-(7H-Pyrrolo[2,3-d]pyrimidin-4-yl)-4,7-diaza-spiro[2.5]octane-4-sulfonic acid (3-cyano-propyl)-methyl-amide] | > 7.00 | > 7.00 | > 7.00 | > 7.00
CN(C)C(=O)CN(C)S(=O)(=O)N1CCN(c2ncnc3[nH]ccc23)CC12CC2 [Example 36, N,N-Dimethyl-2-{methyl-[7-(7H-pyrrolo[2,3-d]pyrimidin-4-yl)-4,7-diaza-spiro[2.5]octane-4-sulfonyl]-amino}-acetamide] | 6.30 to 7.00 | > 7.00 | 6.30 to 7.00 | > 7.00
CN(Cc1ccc(C#N)cc1)S(=O)(=O)N1CCN(c2ncnc3[nH]ccc23)CC12CC2 [Example 37, 7-(7H-Pyrrolo[2,3-d]pyrimidin-4-yl)-4,7-diaza-spiro[2.5]octane-4-sulfonic acid (4-cyano-benzyl)-methyl-amide] | 6.30 to 7.00 | > 7.00 | > 7.00 | > 7.00
O=S(=O)(N1CCCCC1)N1CCN(c2ncnc3[nH]ccc23)CC12CC2 [Example 38, 4-[4-(Piperidine-1-sulfonyl)-4,7-diaza-spiro[2.5]oct-7-yl]-7H-pyrrolo[2,3-d]pyrimidine] | 6.30 to 7.00 | 6.30 to 7.00 | 6.30 to 7.00 | > 7.00
